What follows are compounds tested against T1, human kinase Mps-1 (Homo sapiens, UniProt P33981) (assay: Mps-1 kinase assay (TR-FRET)). Details: N-terminally GST-tagged human full length recombinant Mps-1; 10 μM ATP; 1 μM peptide substrate; 15 min pre-incubation; 60 min at 22° C.
T1 construct: N-terminally GST-tagged human full length recombinant Mps-1 kinase; GST (N); purchased Invitrogen, Karslruhe, Germany PV4071
T1 sequence (P33981 1-857): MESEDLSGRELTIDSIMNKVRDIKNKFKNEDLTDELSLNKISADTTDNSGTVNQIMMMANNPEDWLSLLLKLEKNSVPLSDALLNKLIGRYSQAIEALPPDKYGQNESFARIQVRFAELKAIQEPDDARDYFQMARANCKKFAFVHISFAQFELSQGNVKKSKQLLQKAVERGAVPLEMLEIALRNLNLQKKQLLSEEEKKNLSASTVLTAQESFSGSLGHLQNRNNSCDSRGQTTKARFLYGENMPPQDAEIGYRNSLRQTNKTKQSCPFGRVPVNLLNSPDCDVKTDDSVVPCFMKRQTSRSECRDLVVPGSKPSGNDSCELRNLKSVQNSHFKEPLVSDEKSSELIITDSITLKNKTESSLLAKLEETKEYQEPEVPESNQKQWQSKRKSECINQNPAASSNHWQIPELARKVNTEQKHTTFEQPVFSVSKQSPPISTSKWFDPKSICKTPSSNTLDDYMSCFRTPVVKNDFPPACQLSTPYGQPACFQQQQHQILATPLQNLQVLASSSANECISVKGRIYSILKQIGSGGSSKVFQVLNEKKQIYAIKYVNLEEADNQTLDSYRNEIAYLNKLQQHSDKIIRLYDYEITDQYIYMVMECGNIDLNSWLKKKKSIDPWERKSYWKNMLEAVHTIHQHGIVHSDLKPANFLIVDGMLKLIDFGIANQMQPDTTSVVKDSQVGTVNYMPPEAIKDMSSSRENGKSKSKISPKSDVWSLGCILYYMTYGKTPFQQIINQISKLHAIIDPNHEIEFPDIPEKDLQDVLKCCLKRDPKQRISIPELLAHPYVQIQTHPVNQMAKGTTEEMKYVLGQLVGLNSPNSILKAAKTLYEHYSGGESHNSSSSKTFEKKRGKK
Assay type: biochemical
Experimental: The human kinase Mps-1 phosphorylates a biotinylated substrate peptide. Detection of the phosphorylated product is achieved by time-resolved fluorescence resonance energy transfer (TR-FRET) from Europium-labelled anti-phospho-Serine/Threonine antibody as donor to streptavidin labelled with cross-linked allophycocyanin (SA-XLent) as acceptor. Compounds are tested for their inhibition of the kinase activity.
N-terminally GST-tagged human full length recombinant Mps-1 kinase (purchased from Invitrogen, Karslruhe, Germany, cat. no PV4071) was used. As substrate for the kinase reaction a biotinylated peptide of the amino-acid sequence […] (C-terminus in amide form, purchased from Biosynthan GmbH, Berlin) was used.
The concentration of Mps-1 in the assay was adjusted to the activity of the enzyme lot and was chosen appropriate to have the assay in the linear range, typical enzyme concentrations were in the range of about 1 nM (final conc. in the 5 μl assay volume).
The resulting mixture was incubated 1 h at 22° C. to allow the binding of the phosphorylated peptide to the anti-phospho(Ser/Thr)-Europium-antibody. Subsequently the amount of phosphorylated substrate was evaluated by measurement of the resonance energy transfer from the Europium-labelled anti-phospho(Ser/Thr) antibody to the Streptavidin-XLent. Therefore, the fluorescence emissions at 620 nm and 665 nm after excitation at 350 nm was measured in a Viewlux TR-FRET reader (PerkinElmer LAS, Rodgau-Jügesheim, Germany). The “blank-corrected normalized ratio” (a Viewlux specific readout, similar to the traditional ratio of the emissions at 665 nm and at 622 nm, in which blank and Eu-donor crosstalk are subtracted from the 665 nm signal before the ratio is calculated) was taken as the measure for the amount of phosphorylated substrate.

IC50 [nM] | SMILES
75.4 | CC(C)CNc1nc(-c2ccc(C(C)(C)C)cc2)cn2c(-c3ccc(C(=O)NC4CC4)cc3)cnc12 [Example 1-50, 4-{6-(4-tert-butylphenyl)-8-[(2-methylpropyl)amino]imidazo[1,2-a]pyrazin-3-yl}-N-cyclo-propylbenzamide]
3.7 | CC(C)CNc1nc(-c2ccccc2F)cn2c(-c3ccc(C(=O)NC4CC4)cc3)cnc12 [Example 1-51, N-cyclopropyl-4-{6-(2-fluorophenyl)-8-[(2-methylpropyl)amino]imidazo[1,2-a]pyrazin-3-yl}benzamide]
31.4 | CC(C)CNc1nc(-c2ccc(OC(F)(F)F)cc2)cn2c(-c3ccc(C(=O)NC4CC4)cc3)cnc12 [Example 1-52, N-cyclopropyl-4-{8-[(2-methylpropyl)amino]-6-[4-(trifluoromethoxy)phenyl]imidazo[1,2-a]pyrazin-3-yl}benzamide]
2.1 | CC(C)CNc1nc(-c2ccc(C(=O)Nc3ccccc3)cc2)cn2c(-c3ccc(C(=O)NC4CC4)cc3)cnc12 [Example 1-53, 4-{3-[4-(cyclopropyl-carbamoyl)phenyl]-8-[(2-methylpropyl)amino]imidazo[1,2-a]pyrazin-6-yl}-N-phenylbenzamide]
6.2 | CC(C)CNc1nc(-c2cccc(C(=O)N3CCCC3)c2)cn2c(-c3ccc(C(=O)NC4CC4)cc3)cnc12 [Example 1-54, N-cyclopropyl-4-{8-[(2-methylpropyl)amino]-6-[3-(pyrrolidin-1-yl-carbonyl)phenyl]imidazo [1,2-a]pyrazin-3-yl} benzamide]
4.6 | CC(C)CNc1nc(-c2cccc(C(=O)NCc3ccccc3)c2)cn2c(-c3ccc(C(=O)NC4CC4)cc3)cnc12 [Example 1-55, N-benzyl-3-{3-[4-(cyclo-propylcarbamoyl)phenyl]-8-[(2-methylpropyl)amino]imidazo[1,2-a]pyrazin-6-yl}benzamide]
1.6 | CC(C)CNc1nc(-c2cccc(C(=O)NC3CC3)c2)cn2c(-c3ccc(C(=O)NC4CC4)cc3)cnc12 [Example 1-56, N-cyclopropyl-3-{3-[4-(cyclopropylcarbamoyl)phenyl]-8-[(2-methylpropyl)amino]imidazo [1,2-a]pyrazin-6-yl} benzamide]
10.4 | CC(C)CNc1nc(-c2cccc(C(=O)Nc3ccccc3)c2)cn2c(-c3ccc(C(=O)NC4CC4)cc3)cnc12 [Example 1-57, 3-{3-[4-(cyclopropyl-carbamoyl)phenyl]-8-[(2-methylpropyl)amino]imidazo[1,2-a]pyrazin-6-yl}-N-phenylbenzamide]
27 | CC(C)CNc1nc(-c2ccc(OC(C)C)cc2)cn2c(-c3ccc(C(=O)NC4CC4)cc3)cnc12 [Example 1-58, N-cyclopropyl-4-{8-[(2-methylpropyl)amino]-6-[4-(propan-2-yloxy)phenyl]imidazo[1,2-a]pyrazin-3-yl}benzamide]
55.7 | CC(C)CNc1nc(-c2ccc(C(C)C)cc2)cn2c(-c3ccc(C(=O)NC4CC4)cc3)cnc12 [Example 1-59, N-cyclopropyl-4-{8-[(2-methylpropyl)amino]-6-[4-(propan-2-yl)phenyl]imidazo[1,2-a]pyrazin-3-yl}benzamide]
42.4 | CC(C)CNc1nc(-c2cc(F)cc(F)c2)cn2c(-c3ccc(C(=O)NC4CC4)cc3)cnc12 [Example 1-60, N-cyclopropyl-4-{6-(3,5-difluorophenyl)-8-[(2-methylpropyl)amino]imidazo[1,2-a]pyrazin-3-yl}benzamide]
2 | CC(C)CNc1nc(-c2ccc([N+](=O)[O-])cc2)cn2c(-c3ccc(C(=O)NC4CC4)cc3)cnc12 [Example 1-61, N-cyclopropyl-4-{8-[(2-methylpropyl)amino]-6-(4-nitrophenyl)imidazo [1,2-a]pyrazin-3-yl} benzamide]
6.7 | COc1ccc(-c2cn3c(-c4ccc(C(=O)NC5CC5)cc4)cnc3c(NCC(C)C)n2)cc1F [Example 1-62, N-cyclopropyl-4-{6-(3-fluoro-4-methoxyphenyl)-8-[(2-methylpropyl)amino]imidazo[1,2-a]pyrazin-3-yl}benzamide]

Source: patent US20140187548A1, “6 SUBSTITUTED IMIDAZOPYRAZINES FOR USE AS MPS-1 AND TKK INHIBITORS IN THE TREATMENT OF HYPERPROLIFERATIVE DISORDERS” (BAYER INTELLECTUAL PROPERTY GMBH, priority 2010, published 2014)
